Measured values published in patent US20120142027A1, “Compositions and Methods for Modulating the Immune Response and Identifying Immunomodulators” (WHITEHEAD INSTITUTE FOR BIOMEDICAL RESEARCH, priority 2007, published 2012).

Columns and labels:
[1] = system: RAW macrophages stably expressing wild type UNC93B-HA; test: Endo H sensitivity of UNC93B-HA and Class I MHC in RAW macrophages; format: cell-based, mouse; conditions: Brefeldin A 10 μg/ml, present throughout pulse, chase and CpG stimulation
Protocol: FIG. 14. The interaction between UNC93B and TLRs maintains in dendritic cells stimulated with TLR agonists. (a) BM-DCs were metabolically labeled with ^35S-methionine/cysteine and stimulated with TLR ligands for 1 h (LPS: 1 μg/ml, poly (I:C): 50 μg/ml, Imiquimod: 2.5 CpG DNA: 2.5 μM). Endogenous UNC93B and TLRs were immunoprecipitated with an anti-UNC93B antibody, digested with endoglycosidase H (Endo H), subjected to 10% SDS-PAGE and visualized by fluorography. TLRs coimmunoprecipitated with UNC93B are denoted by open triangles. Interaction between TLRs and UNC93B was maintained even after TLR stimulation with various agonists. […] NRS; normal rabbit serum (b) RAW macrophages stably expressing wild type UNC93B-HA were exposed to Brefeldin A (10 μg/ml) for 2 h, metabolically labeled with ^35S-methionine/cysteine for 30 min (pulse), incubated in normal medium for 2 h (chase) followed by 2 h stimulation with CpG (+CpG) or were left unstimulated (−CpG). All incubations (pulse, chase, CpG stimulation) were done in the continuous presence of Brefeldin A. As a control, cells were not treated with Brefeldin A (−BA). Cells were lysed in RIPA buffer and UNC93B-HA and Class I MHC products were recovered from cell lysates by immunoprecipitation with an anti-HA (upper panel) or Class I antibody (lower panel), respectively. […]

TLR signaling = conditions: pretreatment of wild type cells; cited from earlier work
[2] = system: UNC93B/TLR interaction in A20 B cells; test: Coimmunoprecipitation of TLRs with UNC93B-HA after stimulation with TLR agonists; format: cell-based, mouse; conditions: imiquimod 10 μM, gardiquimod 1 μM, CpG DNA 1 μM, 1 h
Protocol: Stimulation with TLR agonists. A20 B cells either not transduced or stably transduced with UNC93B-HA WT or H412R were metabolically labeled with ^35S-methionine/cysteine for 4 h (pulse). TLR agonists were added to the cells for the final hour of the pulse at the following concentrations: imiquimod: 10 μM, gardiquimod: 1 μM, CpG DNA: 1 μM.
Pulse-chase, immunoprecipitation and Endo H/F assay. In brief, cells were starved for methionine and cysteine in Met/Cys-free DMEM (starvation medium) for 30 min, pulsed for different time periods (see figure legends) with ^35S-labeled methionine/cysteine (Perkin Elmer) in starvation medium supplemented with dialyzed IFS, and chased with an excess of non-radioactive amino acids in regular DMEM for various time periods (see figure legends). Cells were lysed in either of the following lysis buffers supplemented with the complete protease inhibitors (Roche) as indicated in the figure legends: RIPA (20 mM Tris-HCl, pH 7.4, 1 mM EDTA, 100 mM NaCl, 1% Triton X-100, 0.5% sodium deoxycholate, 0.1% SDS), or buffer containing 50 mM Tris-HCl, pH 7.4, 150 mM NaCl, 5 mM EDTA with either 1% NP-40 or 1% digitonin as detergent. Lysates were equalized for incorporation of radioactive material with ^35S counts in the trichloroacetic acid precipitate and immunoprecipitated with the indicated antibodies. […]

BM-DCs [3] = test: TNF production in BM-DCs stimulated with TLR agonists (intracellular TNF, flow cytometry); format: cell-based, mouse; conditions: BM-DCs from 3d (UNC93B H412R) mice; 100 nM imiquimod or 1 μM CpG, 4 h, with 10 μg/ml brefeldin A
Protocol: TNF assay. Five days old BM-DCs expressing either wild type or mutant UNC93B-GFP were stimulated with 1 μg/ml LPS, 100 nM imiquimod or 1 μM CpG for 4 hours in the presence of 10 μg/ml brefeldin A. The cells were fixed with 4% formaldehyde for 10 min at RT and permeabilized with 0.5% saponin in FACS buffer (PBS with 2% BSA and 0.05% sodium azide) for 10 min. After blocking with anti-CD16 antibody (clone 2.4G2) for 30 min, cells were stained with PE-conjugated anti-CD11c (clone HL3) and Alexa Fluor 647-conjugated anti-TNF (clone MP6-XT22) antibodies for 30 min. Fluorescence intensity was measured with LSR I flow cytometer (BD biosciences). Data were collected with CellQuest (BD biosciences) and analyzed with FlowJo (TriStar).

BM-DCs [4] = test: Surface MHC class II level on BM-DCs by flow cytometry; format: cell-based, mouse; conditions: B6 or 3d BM-DCs; 1 μg/ml LPS, 1 μM CpG or 1 μM imiquimod, 16 h
Protocol: (b) BM-DCs from B6 and 3d mice were fixed, permeablized and stained for MHC class II (green) and Lamp1 (red). […] White dashed lines mark the cell boundary. […] (d) B6 or 3d BM-DCs were stimulated with 1 μg/ml LPS or 1 μM CpG for 16 h, fixed, permeabilized and stained for MHC class II and Lamp1. […] Scale bars; 10 μm

TLR7 = target: T1, TLR7 (Mus musculus, UniProt P58681); test: Live cell imaging of TLR7-YFP localization in BM-DCs; format: cell-based; conditions: wild type (B6) BM-DCs, 1 μM imiquimod, 2 h
T1 construct: expressed in transfected cells; host or cells: bone marrow-derived dendritic cells from B6 or 3d mice, retroviral transduction (pMXrmv5-TLR7-YFP)
T1 sequence (P58681 27-1050): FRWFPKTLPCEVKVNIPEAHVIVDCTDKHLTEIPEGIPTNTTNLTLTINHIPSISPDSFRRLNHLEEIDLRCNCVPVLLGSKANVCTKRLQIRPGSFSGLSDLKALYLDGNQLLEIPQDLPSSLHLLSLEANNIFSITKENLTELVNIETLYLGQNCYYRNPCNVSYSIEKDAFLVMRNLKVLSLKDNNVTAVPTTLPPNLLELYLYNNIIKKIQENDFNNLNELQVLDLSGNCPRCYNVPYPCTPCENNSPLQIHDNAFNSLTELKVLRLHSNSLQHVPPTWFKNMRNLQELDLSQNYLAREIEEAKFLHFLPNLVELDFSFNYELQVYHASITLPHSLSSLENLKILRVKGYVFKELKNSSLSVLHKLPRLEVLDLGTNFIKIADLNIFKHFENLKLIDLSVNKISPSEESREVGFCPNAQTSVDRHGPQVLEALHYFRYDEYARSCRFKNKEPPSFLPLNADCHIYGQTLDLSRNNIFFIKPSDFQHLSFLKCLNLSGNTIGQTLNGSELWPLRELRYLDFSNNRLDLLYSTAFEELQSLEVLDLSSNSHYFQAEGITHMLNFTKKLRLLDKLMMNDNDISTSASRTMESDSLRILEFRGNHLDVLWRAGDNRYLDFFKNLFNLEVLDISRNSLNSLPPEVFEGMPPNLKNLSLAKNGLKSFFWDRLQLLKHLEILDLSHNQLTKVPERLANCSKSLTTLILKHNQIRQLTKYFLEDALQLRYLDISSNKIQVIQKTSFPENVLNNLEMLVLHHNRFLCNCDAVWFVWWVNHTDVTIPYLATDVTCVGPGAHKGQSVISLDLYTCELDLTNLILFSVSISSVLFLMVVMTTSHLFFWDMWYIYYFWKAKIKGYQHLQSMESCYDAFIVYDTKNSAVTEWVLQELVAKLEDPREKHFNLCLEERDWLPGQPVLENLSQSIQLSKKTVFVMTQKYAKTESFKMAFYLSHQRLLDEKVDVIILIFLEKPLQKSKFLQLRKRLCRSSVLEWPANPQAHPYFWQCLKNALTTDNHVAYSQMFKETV
Protocol: Image acquisition and data analysis. For live cell imaging, cells were grown in 8 well-chambered coverglasses (LAB-TEK). During imaging, cells were maintained in phenol red-free DMEM supplemented with 25 mM Hepes (pH 7.4) at 37° C. with 5% supplemental CO2 in room air using a Solent scientific chamber. Images were acquired using a spinning disk confocal microscope equipped with a 3 watt water-cooled 5 line laser (Prairie Technologies), a Nikon TE2000-U inverted microscope, acousto-optic tunable filters (AOTF), a Yokagawa QLC-100 spinning disk confocal head, a Prior x,y stage controller, a Piezo z stage and Hamamatsu Orca ER and EM CCD cameras. All images were taken with a Nikon 100X 1.4NA DIC lens. Metamorph (Molecular Devices) was used for image acquisition and figures were constructed using Adobe Photoshop and Illustrator. Quantitative colocalization analyses were performed using applications ‘Measure Colocalization’ and ‘Correlation Plot’ in the MetaMorph software (Molecular Devices).

Row | Compound | effect on TLR signaling compared with the defects of 3d cells (TLR signaling) | levels of coimmunoprecipitated TLR polypeptides after TLR activation versus unstimulated cells [2] | also measured
1 | C[C@H]1CCC/C=C/[C@@H]2C[C@H](O)C[C@H]2[C@H](O)/C=C/C(=O)O1 [Brefeldin A] |  |  | Endo H resistance of Class I MHC and UNC93B [1]: both Class I MHC and UNC93B acquire partially EndoH resistant hybrid type oligosaccharides
2 | CO/C1=C\C(C)=C\[C@@H](C)[C@@H](O)[C@@H](C)C/C(C)=C/C=C/[C@H](OC)[C@@H]([C@@H](C)[C@@H](O)[C@H](C)[C@@]2(O)C[C@@H](O)[C@H](C)[C@@H](C(C)C)O2)OC1=O [bafilomycin] | mimicked |  | 
3 | CCN(CC)CCCC(C)Nc1ccnc2cc(Cl)ccc12 (centres unmarked) [chloroquine] | mimicked |  | 
4 | CCNCc1nc2c(N)nc3ccccc3c2n1CC(C)(C)O [gardiquimod] |  | No significant changes | 
5 | CC(C)Cn1cnc2c(N)nc3ccccc3c21 [imiquimod, Imiquimod] |  | No significant changes | TNF production (BM-DCs [3]): failed to produce TNF; surface level of MHC class II (BM-DCs [4]): failed to increase the MHC class II level in 3d cells; localization of TLR7 after stimulation (TLR7): trafficking of TLR7 from the ER to endolysosomes was also observed
